Measurements from ChEMBL document CHEMBL6127047, “Nitrogen-containing heterocyclic drug products approved by the FDA in 2023: Synthesis and biological activity” (Eur J Med Chem, 2024).
Blank lines part the entries; values can stand above or below the compound they belong to. Where a SMILES comes first, the peptide text is derived from it. [ ]: non-standard residue; d: D form. αMeP = C[C@@]1(C(=O)O)CCCN1

Legend:
clinical [1] = conditions: human, in vivo, po
Description: Oral bioavailability in human

[2] = Apparent volume of distribution at steady state in human at 200 mg; format: ADME; conditions: read-out: Vdss(app)
[3] = Plasma protein binding in human; format: ADME, cell-free; conditions: read-out: PPB
[4] = Cmax in human at 200 mg; format: ADME
clinical [5] = conditions: human
clinical [6] = conditions: human; remark: listed apart in the source
Neuromedin-K receptor = target: T1, Neuromedin-K receptor (Homo sapiens, UniProt P29371)
T1 sequence (P29371 whole entry): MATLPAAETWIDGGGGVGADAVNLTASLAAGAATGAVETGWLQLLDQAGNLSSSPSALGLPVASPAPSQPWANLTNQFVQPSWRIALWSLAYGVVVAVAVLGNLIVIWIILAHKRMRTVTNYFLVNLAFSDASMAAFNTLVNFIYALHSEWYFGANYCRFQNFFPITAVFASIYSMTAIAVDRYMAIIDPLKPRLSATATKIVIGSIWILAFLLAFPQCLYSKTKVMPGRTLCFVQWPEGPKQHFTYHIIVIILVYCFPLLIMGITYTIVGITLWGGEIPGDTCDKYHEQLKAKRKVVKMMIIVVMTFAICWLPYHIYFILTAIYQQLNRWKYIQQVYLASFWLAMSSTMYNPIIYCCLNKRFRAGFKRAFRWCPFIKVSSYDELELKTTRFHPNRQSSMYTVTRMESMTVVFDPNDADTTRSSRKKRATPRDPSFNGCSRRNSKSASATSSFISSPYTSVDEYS
Description: Binding affinity to human recombinant NK3R assessed as inhibition constant

clinical [7] = conditions: human, in vivo, po; remark: listed apart in the source
[8] = Cmax in human; format: ADME
[9] = AUC in human; format: ADME
[10] = target: T2, Tyrosine-protein kinase BTK (Homo sapiens, UniProt Q06187)
T2 sequence (Q06187 whole entry): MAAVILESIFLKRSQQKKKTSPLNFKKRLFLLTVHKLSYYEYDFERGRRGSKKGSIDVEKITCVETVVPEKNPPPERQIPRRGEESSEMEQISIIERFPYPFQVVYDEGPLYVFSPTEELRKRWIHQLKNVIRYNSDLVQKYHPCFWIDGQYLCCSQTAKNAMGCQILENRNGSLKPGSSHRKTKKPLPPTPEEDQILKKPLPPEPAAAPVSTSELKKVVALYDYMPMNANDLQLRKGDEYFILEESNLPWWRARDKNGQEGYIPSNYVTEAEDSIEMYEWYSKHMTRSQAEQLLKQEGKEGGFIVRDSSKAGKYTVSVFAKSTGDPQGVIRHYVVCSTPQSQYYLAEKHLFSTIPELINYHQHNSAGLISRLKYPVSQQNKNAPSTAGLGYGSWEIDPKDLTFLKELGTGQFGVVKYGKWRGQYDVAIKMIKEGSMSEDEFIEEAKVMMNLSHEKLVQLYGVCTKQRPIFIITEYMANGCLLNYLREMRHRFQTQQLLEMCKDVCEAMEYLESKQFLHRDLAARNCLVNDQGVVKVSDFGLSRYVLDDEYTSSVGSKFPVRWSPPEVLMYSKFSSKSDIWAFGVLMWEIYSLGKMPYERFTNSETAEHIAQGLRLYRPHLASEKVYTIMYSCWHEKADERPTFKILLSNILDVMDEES
Description: Inhibition of wild type BTK (unknown origin)

[11] = target: T2, Tyrosine-protein kinase BTK; remark: listed apart in the source
Description: Inhibition of wild type BTK (unknown origin) stably transfected in HEK293 cells

[12] = target: Receptor-type tyrosine-protein kinase FLT3 (Homo sapiens, UniProt P36888, ITD); format: cell-based, MV4-11
Receptor-type tyrosine-protein kinase FLT3, sequence (P36888 whole entry, looked up, change not shown): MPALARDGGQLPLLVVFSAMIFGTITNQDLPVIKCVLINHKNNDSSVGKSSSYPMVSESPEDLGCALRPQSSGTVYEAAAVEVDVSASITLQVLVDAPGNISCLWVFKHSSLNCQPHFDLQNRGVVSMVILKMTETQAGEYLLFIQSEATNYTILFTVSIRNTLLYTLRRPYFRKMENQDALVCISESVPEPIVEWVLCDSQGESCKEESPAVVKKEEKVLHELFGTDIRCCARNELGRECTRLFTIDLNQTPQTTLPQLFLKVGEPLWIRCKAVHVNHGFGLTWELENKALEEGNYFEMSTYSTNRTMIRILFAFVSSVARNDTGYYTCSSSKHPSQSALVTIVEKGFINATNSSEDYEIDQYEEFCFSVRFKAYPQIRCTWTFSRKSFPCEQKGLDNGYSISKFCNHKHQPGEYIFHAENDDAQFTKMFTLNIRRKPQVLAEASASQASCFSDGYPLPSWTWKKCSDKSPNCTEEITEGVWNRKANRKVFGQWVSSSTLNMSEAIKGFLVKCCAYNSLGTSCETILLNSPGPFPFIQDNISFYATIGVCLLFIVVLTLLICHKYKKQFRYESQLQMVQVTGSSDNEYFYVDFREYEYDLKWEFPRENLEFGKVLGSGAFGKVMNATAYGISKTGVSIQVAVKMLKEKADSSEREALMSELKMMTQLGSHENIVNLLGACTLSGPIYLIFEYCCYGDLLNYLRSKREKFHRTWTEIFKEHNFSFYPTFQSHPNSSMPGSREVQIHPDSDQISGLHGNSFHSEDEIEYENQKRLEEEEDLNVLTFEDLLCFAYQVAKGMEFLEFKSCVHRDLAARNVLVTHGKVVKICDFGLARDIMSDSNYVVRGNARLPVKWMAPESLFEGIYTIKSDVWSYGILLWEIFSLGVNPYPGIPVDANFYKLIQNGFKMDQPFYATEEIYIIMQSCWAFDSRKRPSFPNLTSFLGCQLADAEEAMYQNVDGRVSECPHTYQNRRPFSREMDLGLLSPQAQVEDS

CYP3A4 = CYP3A4 (Homo sapiens, UniProt P08684); experiment: Inhibition of CYP3A4 (unknown origin) at 10 uM relative to control; format: ADME
CYP3A4, sequence (P08684 whole entry): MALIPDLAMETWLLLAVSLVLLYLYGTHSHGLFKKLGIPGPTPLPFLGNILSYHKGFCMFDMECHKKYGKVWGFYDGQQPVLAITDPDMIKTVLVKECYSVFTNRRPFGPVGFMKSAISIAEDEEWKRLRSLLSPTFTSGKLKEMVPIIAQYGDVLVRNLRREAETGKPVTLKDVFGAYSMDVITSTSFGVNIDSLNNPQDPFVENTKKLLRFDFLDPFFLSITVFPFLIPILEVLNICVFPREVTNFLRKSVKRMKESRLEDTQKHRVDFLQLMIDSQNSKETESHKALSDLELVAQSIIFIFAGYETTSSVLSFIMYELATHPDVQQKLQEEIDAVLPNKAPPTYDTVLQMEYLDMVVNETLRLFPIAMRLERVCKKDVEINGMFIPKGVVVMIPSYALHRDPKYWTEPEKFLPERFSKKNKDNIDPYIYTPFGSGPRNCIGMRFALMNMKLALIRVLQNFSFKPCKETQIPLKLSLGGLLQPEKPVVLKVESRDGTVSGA

in vivo = conditions: mouse, iv, 3 mg/kg

SMILES: Cc1nsc(-c2nnc3n2CCN(C(=O)c2ccc(F)cc2)[C@@H]3C)n1 [FEZOLINETANT]
- half-life (clinical [5]): 9.6 h
- Vd (clinical [6]): 189 L
- Ki (Neuromedin-K receptor): 21.8 nM
- Cmax (clinical [7]): 1.5 ng/mL

SMILES: COc1ccc(F)cc1C(=O)NCc1ccc(-c2nn([C@H](C)C(F)(F)F)c(N)c2C(N)=O)cc1
- half-life (clinical [5]): 19 h
- IC50 [10]: 5.69 nM
- IC50 [11]: 21.2 nM
- bioavailability (clinical [1]): 85.5%

SMILES: CC(C)(C)c1cc(NC(=O)Nc2ccc(-c3cn4c(n3)sc3cc(OCCCN5CCOCC5)ccc34)cc2)no1
- IC50 [12]: 0.79 nM

SMILES: CC(C)(C)c1cc(NC(=O)Nc2ccc(-c3cn4c(n3)sc3cc(OCCN5CCCCC5)ccc34)cc2)no1
- IC50 [12]: 0.88 nM

More lines, now with the values ahead:

- bioavailability (clinical [1]): 64%
SMILES: C=CC(=O)N1C[C@H](Nc2ncnc3[nH]ccc23)CC[C@@H]1C [RITLECITINIB]

- Vd [2]: 984 L
- fraction unbound [3]: 0.09
- Cmax [4]: 479 ng/mL
SMILES: N#CCNC(=O)c1ccc(-c2ccnc(Nc3ccc(N4CCOCC4)cc3)n2)cc1 [MOMELOTINIB]

- Cmax [8]: 508 ng/mL
- AUC [9]: 3370 ng·h/mL
- bioavailability (clinical [1]): 19%
SMILES: CCC[C@H](N[C@H]1CCc2cc(F)cc(F)c2C1)C(=O)Nc1cn(C(C)(C)CNCC(C)(C)C)cn1 [NIROGACESTAT]

- inhibition at 10 µM (CYP3A4): 99%
SMILES: CC1(C)CCC(C)(C)c2cc(Cn3cccn3)c(/C=C/c3ccc(C(=O)O)cc3)cc21 [PALOVAROTENE]

- half-life (in vivo): 1.5 h
SMILES: C[C@@]1(C(=O)N[C@@H](CCC(=O)O)C(=O)O)CCCN1C(=O)CN [TROFINETIDE] (H-Gly-[αMeP]-Glu-OH)
